Values of other authors, collected in patent publication US20120231996A1, “Phalloidin derivatives and methods for their synthesis” (priority 2006, published 2012).
Numbered stars: 1 amine (or outer) side, 2 acyl side, 3 side chain; on linkers, the order of the positions; unused ones are H or OH. Bridge positions count the residues as written; N and C are the ends. Square brackets hold non-standard residues; d marks the D form. Peptide text beside a SMILES is read from it. Trp(2-yl) = O=C([C@H](Cc1c([*:3])[nH]c2ccccc12)N[*:1])[*:2]; Leu(4R-OH,5-OH) = C[C@](O)(CO)C[C@H](N)C(=O)O; cisHyp = O=C(O)[C@@H]1C[C@H](O)CN1

Columns and labels:
actin = conditions: in solution
[1] = tested on: filamentous actin (F-actin)

C[C@@H]1NC(=O)[C@H](C[C@@](C)(O)CO)NC(=O)[C@@H]2Cc3c([nH]c4ccccc34)SC[C@H](NC(=O)[C@@H]([C@H](C)O)NC1=O)C(=O)N1C[C@@H](O)C[C@H]1C(=O)N[C@@H](C)C(=O)N2 [Phalloidin] (cyclo(A[dT]C[cisHyp]A[Trp(2-yl)][Leu(4R-OH,5-OH)]); thioether 3-6)
Effect on critical concentration of actin polymerization (actin): lowers the critical concentration of actin polymerization | Affinity of binding to filamentous actin [1]: binds with high affinity
